One data set is described as follows: in vitro. It counts as in vitro ADME, mice. The conditions noted are these: mouse; for recovery at 4 h, 5 µM: pH 7.4; for fraction unbound at 4 h, 5 μM: plasma. As to the method: (§1) The objective of this study was to evaluate protein binding test compounds in mice plasma. This was accomplished by spiking the test compounds at a concentration of 5 μM into mice plasma and dialyzing against buffer until equilibrium is achieved (4 hours). Analyte area ratios of the test compounds in plasma and buffer were determined to calculate unbound and bound percentages of compound to the plasma proteins.
(§2) Phosphate buffered saline pack (0.1 M sodium phosphate and 0.15 M sodium chloride, pH 7.2) was dissolved in 500 mL of deionized water and pH was adjusted to 7.4 with 0.5 N NaOH.
(§3) 1 mM stock solutions were prepared in DMSO and diluted 200-folds in mice plasma to prepare a concentration of 5 μM. The final DMSO concentration in plasma was 0.5%.
(§4) Rapid equilibrium dialysis was performed with a rapid equilibrium dialysis (RED) device containing dialysis membrane with a molecular weight cut-off of 8,000 Daltons. Each dialysis insert contains two chambers. The red chamber is for plasma while the white chamber is for buffer.
(§5) A 200 μL aliquot of warfarin and test compound at 5 (triplicates) were separately added to the plasma chamber and 350 μL of phosphate buffer saline (pH 7.4) was added to the buffer chamber of the inserts. After sealing the RED device with an adhesive film, dialysis was performed in incubator at 37° C. with shaking at 100 RPM for 4 hours.
(§6) A 50 μL aliquot of warfarin and test compounds were added to four 0.5 mL microfuse tubes. Two aliquots were frozen immediately (0 minute sample). The other two aliquots were incubated at 37° C. for 4 hours along with the RED device.
(§7) Following dialysis, an aliquot of 50 μL was removed from each well (both plasma and buffer side) and diluted with equal volume of opposite matrix (dialyzed with the other matrix) to nullify the matrix effect. Similarly, 50 μL of buffer was added to recovery and stability samples. An aliquot of 100 μL was submitted for LCMS/MS analysis.
(§8) A 25 μL aliquot of warfarin and test compounds were crashed with 100 μL of acetonitrile containing internal standard (glipizide) and vortexed for 5 minutes. The samples were centrifuged at 4000 RPM at 4° C. for 10 min and 100 μL of supernatant was submitted for LC-MS/MS analysis. Samples were monitored for parent compound in MRM mode using LC-MS/MS.
(§9) The peak area ratios (analyte versus internal standard) obtained were used to determine the fraction of compound bound to plasma proteins.

The subject of another data set is mice plasma. The data set is described as follows: in vitro. Type of data set: in vitro ADME. The conditions noted are these: mouse, plasma, 4 h, 5 μM. The protocol: as §1, §2, §3, §4, §5, §6, §7, §8, §9
The subject of a further data set is STAT1. The data set is described as follows: Western blotting of STAT1 protein levels in GBM spheres. It counts as cell-based, human. The conditions noted are these: 72 hours. As to the method: GBM cells were treated with DMSO or different concentrations of the test compounds for 72 hours. Cells were lysed in Cell Lysis Buffer (Cell Signaling, #9803) supplemented with Protease Inhibitor Cocktail (Sigma, #P8340), sonicated briefly while on ice and spun down for 30 minutes at 4° C., after which the supernatant was collected. For each sample, 2 uL of lysate was mixed well into 198 uL de-ionized water. Next, 10 uL of this diluted sample was added to a well in a 96 well plate in quadruplets and mixed with Protein Assay Dye Reagent Concentrate (Bio-Rad, #500-0006) (which was diluted 1:5 with water). BSA standards of 25 ng, 50 ng, 100 ng, 200 ng and 250 ng were also used to the plate and mixed with the reagent. The plate was read in a plate reader at 600 nm and samples were calibrated to the standards to determine the concentration of protein. Using the NuPAGE system (Invitrogen), 25 ug of protein was mixed with NuPAGE LDS 4× Sample Buffer (#NP0007), NuPAGE 10× Reducing Agent (#NP0004) and water, mixed well and heated at 96° C. for 15 minutes to denature the protein. The samples were then loaded into 4-12% Bis-Tris gels (Novex (Invitrogen), #0323) with a protein ladder (Novex (Invitrogen) Sharp Pre-stained protein ladder, #57318) and run at 100-120V for about 2 hours with NuPAGE 20×SDS MES Running Buffer (#NP0002) diluted with water. Next, the gel was taken out and loaded into a NuPAGE transfer cassette with a polyvinylidene membrane with NuPAGE 20× Transfer Buffer (#NP0006-1) diluted with water and methanol. Proteins were transferred for 1 hour at 30V at room temperature. Blocking was performed using the Millipore SNAP i.d. Protein Detection system in 0.25% non-fat dry milk in 0.1% Tween in PBS (PBST). […] Protein signals were detected using ECL Western Blotting Substrate (Pierce, #32106) and filmed. […]
In general terms: A western blot detects proteins with antibodies after separation by electrophoresis.

Structures can show the parent of a compound that is named as a salt.

The text below walks through data of patent US12215106B2, “Pharmaceutical compounds and therapeutic methods” (RUTGERS, THE STATE UNIVERSITY OF NEW JERSEY, priority 2018, dated 2025).

As a reminder, the fraction unbound is free concentration divided by total concentration. Read a low fraction unbound as extensive binding. For the molecule `COc1c(F)cc(Nc2nc(-c3c(C)nc4ccccn34)cs2)cc1F` [Compound 14, hydrochloride], in “in vitro”, the recovery at 4 h, 5 µM came to 124%. Besides, the fraction unbound at 4 h, 5 μM was 0.003 in “in vitro” (pH 7.4, % Bound Mean ± SD); 0.002 in “in vitro” (pH 7.4, % Bound R1); 0.003 in the data set “in vitro” (pH 7.4, % Bound R2); 0.002 in “in vitro” (pH 7.4, % Bound R3); 0.24 in “in vitro” (pH 7.4, PPB at 4 h). In the data set on mice plasma, the “% compound remaining at 4 hrs” value is recorded as 76%. The STAT1 protein levels entry with STAT1 is given as “lowered STAT1”.
With `[2H]C([2H])([2H])Oc1ccc(Nc2nc(-c3c(C)nc4ccccn34)cs2)cc1` [Compound 15, N-(4-(methoxy-d3)phenyl)-4-(2-methylimidazo[1,2-c]pyridin-3-yl)thiazol-2-amine hydrochloride], the recovery at 4 h, 5 µM in the data set “in vitro” (Plasma) was determined as 114%. Besides, the fraction unbound at 4 h, 5 μM was 0.001 in “in vitro” (pH 7.4, % Bound Mean ± SD); 0.001 in the data set “in vitro” (pH 7.4, % Bound R1); 0.001 in the data set “in vitro” (pH 7.4, % Bound R2); 0.001 in “in vitro” (pH 7.4, % Bound R3); 0.1 in “in vitro” (pH 7.4, PPB at 4 h). Besides, the “% compound remaining at 4 hrs” value in the data set on mice plasma was found to be 90%. Besides, the STAT1 protein levels entry in the data set with STAT1 was “lowered STAT1”.
`Cc1nc2ccccn2c1-c1csc(Nc2ccc3c(c2)OC(F)(F)O3)n1` [Compound 16, N-(2,2-difluorobenzo[d][1,3]dioxol-5-yl)-4-(2-methylimidazo[1,2-a]pyridin-3-yl)thiazol-2-amine hydrochloride] returned a recovery at 4 h, 5 µM in “in vitro” (Plasma) of 117%. For the same molecule, the fraction unbound at 4 h, 5 μM in “in vitro” (pH 7.4, % Bound Mean ± SD) was 0.01; in the data set “in vitro” (pH 7.4, % Bound R1), 0.01; in the data set “in vitro” (pH 7.4, % Bound R2), 0.01; in the data set “in vitro” (pH 7.4, % Bound R3) it was 0.011; in the data set “in vitro” (pH 7.4, PPB at 4 h), 0.24. The “% compound remaining at 4 hrs” value with mice plasma is recorded as 76%.
On to `[2H]C1([2H])Oc2ccc(Nc3nc(-c4c(C)nc5ccccn45)cs3)cc2O1` [Compound 17, N-(benzo[d][1,3]dioxol-5-yl-2,2-d2)-4-(2-methylimidazo[1,2-c]pyridin-3-yl)thiazol-2-amine hydrochloride], for which, in the data set “in vitro”, the recovery at 4 h, 5 µM worked out at 124%. The fraction unbound at 4 h, 5 μM in the data set “in vitro” (pH 7.4, % Bound Mean ± SD) was 0.006; in the data set “in vitro” (pH 7.4, % Bound R1), 0.008; in “in vitro” (pH 7.4, % Bound R2) it was 0.004; in the data set “in vitro” (pH 7.4, % Bound R3), 0.005; in “in vitro” (pH 7.4, PPB at 4 h), 0.25. Besides, the “% compound remaining at 4 hrs” value in the data set with mice plasma came out at 75%. Moreover, in the data set with STAT1, the STAT1 protein levels result was “lowered STAT1”.
